Like-named read-outs stand apart in the source and are kept apart here.
Assays:
humans = conditions: cited from earlier work
topoisomerase I = conditions: cited from earlier work
[1] = test system: Human Serum Albumin (HSA); conditions: in the presence of HSA at 37° C.; vs 20(S) camptothecin and 9-aminocamptothecin; cited from earlier work
[2] = test system: NCI's 60 human tumor cell line; test: NCI 60 human tumor cell line assay (mean, Table 1); format: cell-based; conditions: read-out: IC 50 (mean value of the minimum drug concentration required to produce 50% cell growth inhibition (GI50))
Experimental: (§1) Inoculates were allowed a preincubation period of 24 h at 37° C. for stabilization. […] Readings are transferred to a microcomputer and fmal reports are generated using especially developed software.
^a IC 50 = the mean value of the minimum drug concentration (μm) of
NCI's 60 human tumor cell line assay.

MOLT-4 = test: 50% growth inhibition, […] panel; format: cell-based; conditions: Homo sapiens, read-out: 50% Growth Inhibition (GI 50); MOLT-4, leukemia; 48 h
Experimental: as §1

SR = test: 50% growth inhibition, […] panel; format: cell-based; conditions: Homo sapiens, read-out: 50% Growth Inhibition (GI 50), leukemia, 48 h
Experimental: as §1

CCRF-CEM = test: 50% growth inhibition, […] panel; format: cell-based; conditions: Homo sapiens, read-out: 50% Growth Inhibition (GI 50), leukemia, 48 h
Experimental: as §1

MCF7/ADR = test: 50% growth inhibition, BREAST panel; format: cell-based; conditions: Homo sapiens, NCI/ADR-RES, read-out: 50% Growth Inhibition (GI 50), 48 h
Experimental: as §1

T 47D = test: 50% growth inhibition, BREAST panel; format: cell-based; conditions: Homo sapiens, T47D, read-out: 50% Growth Inhibition (GI 50), 48 h
Experimental: as §1

MCF-7 = test: 50% growth inhibition, BREAST panel; format: cell-based; conditions: Homo sapiens, MCF7, read-out: 50% Growth Inhibition (GI 50); MCF-7, breast; 48 h
Experimental: as §1

SW 620 = test: 50% growth inhibition, COLON panel; format: cell-based; conditions: Homo sapiens, read-out: 50% Growth Inhibition (GI 50); SW 620, colon; 48 h
Experimental: as §1

HCT 116 = test: 50% growth inhibition, COLON panel; format: cell-based; conditions: Homo sapiens, read-out: 50% Growth Inhibition (GI 50); HCT 116, colon; 48 h
Experimental: as §1

ACHN = test: 50% growth inhibition, RENAL panel; format: cell-based; conditions: Homo sapiens, read-out: 50% Growth Inhibition (GI 50), 48 h
Experimental: as §1

786-O = test: 50% growth inhibition, RENAL panel; format: cell-based; conditions: Homo sapiens, 786-0, read-out: 50% Growth Inhibition (GI 50), 48 h
Experimental: as §1

CAKI-1 = test: 50% growth inhibition, RENAL panel; format: cell-based; conditions: Homo sapiens, read-out: 50% Growth Inhibition (GI 50); CAKI-1, renal; 48 h
Experimental: as §1

SF-268 = test: 50% growth inhibition, CNS panel; format: cell-based; conditions: Homo sapiens, SF-268, 48 h, read-out: 50% Growth Inhibition (GI 50)
Experimental: as §1

SNB-19 = test: 50% growth inhibition, CNS panel; format: cell-based; conditions: Homo sapiens, read-out: 50% Growth Inhibition (GI 50); SNB-19, CNS; 48 h
Experimental: as §1

SF-539 = test: 50% growth inhibition, CNS panel; format: cell-based; conditions: Homo sapiens, read-out: 50% Growth Inhibition (GI 50); SF-539, CNS; 48 h
Experimental: as §1

H 460 = test: 50% growth inhibition, NSLC panel; format: cell-based; conditions: Homo sapiens, NCI-H460, read-out: 50% Growth Inhibition (GI 50); H 460, NSLC; 48 h
Experimental: as §1

HOP 62 = test: 50% growth inhibition, NSLC panel; format: cell-based; conditions: Homo sapiens, read-out: 50% Growth Inhibition (GI 50); HOP 62, NSLC; 48 h
Experimental: as §1

H 522 = test: 50% growth inhibition, NSLC panel; format: cell-based; conditions: Homo sapiens, NCI-H522, read-out: 50% Growth Inhibition (GI 50); H 522, NSLC; 48 h
Experimental: as §1

HL 60 = test: 50% growth inhibition, […] panel; format: cell-based; conditions: Homo sapiens, read-out: 50% Growth Inhibition (GI 50); HL 60, leukemia; 48 h
Experimental: as §1

LOX IMVI = test: 50% growth inhibition, MELANOMA panel; format: cell-based; conditions: Homo sapiens, read-out: 50% Growth Inhibition (GI 50), 48 h
Experimental: as §1

M 14 = test: 50% growth inhibition, MELANOMA panel; format: cell-based; conditions: Homo sapiens, M14, read-out: 50% Growth Inhibition (GI 50); M 14, melanoma; 48 h
Experimental: as §1

UACC 62 = test: 50% growth inhibition, MELANOMA panel; format: cell-based; conditions: Homo sapiens, read-out: 50% Growth Inhibition (GI 50); UACC 62, melanoma; 48 h
Experimental: as §1

HT 29 = test: 50% growth inhibition, COLON panel; format: cell-based; conditions: Homo sapiens, read-out: 50% Growth Inhibition (GI 50); HT 29, colon; 48 h
Experimental: as §1

SF 295 = test: 50% growth inhibition, CNS panel; format: cell-based; conditions: Homo sapiens, read-out: 50% Growth Inhibition (GI 50); SF 295, CNS; 48 h
Experimental: as §1

H 23 = test: 50% growth inhibition, NSLC panel; format: cell-based; conditions: Homo sapiens, NCI-H23, read-out: 50% Growth Inhibition (GI 50); H 23, NSLC; 48 h
Experimental: as §1

[3] = vs 20(RS)-camptothecin of the formula 7; cited from earlier work

For `CC[C@@]1(O)C(=O)OCc2c1cc1n(c2=O)Cc2cc3ccccc3nc2-1` [20(S)-Camptothecin], the “toxicity (in words)” value (humans) is listed as “high toxicity problems”, the “side effects on humans (in words)” value (humans; humans) is listed as “unacceptable side effects on humans” and the “topoisomerase I inhibition (in words)” value (topoisomerase I) is listed as “inhibitor of topoisomerise I”.

In the case of `CCc1c2c(nc3ccc(OC(=O)N4CCC(N5CCCCC5)CC4)cc13)-c1cc3c(c(=O)n1C2)COC(=O)[C@]3(O)CC` [CPT-11], the “percentage (%) of lactone form at equilibrium (in words)” value (from here on “percentage (%) of lactone form”) [1] is listed as “higher percentage (%) of lactone form at equilibrium”.

For `CC[C@@]1(O)C(=O)OCc2c1cc1n(c2=O)C(CC(=O)OC)c2cc3ccccc3nc2-1` (stereo partly drawn) [Example 1, 5-Carbomethoxymethylcamptothecin], the IC50 ([2]; Homo sapiens, 48 h) was 16200 nM.

Compound `CC[C@@]1(O)C(=O)OCc2c1cc1n(c2=O)C(CC(C)=O)c2cc3ccccc3nc2-1` (stereo partly drawn) [Example 2, 5-(2'-oxopropyl)camptothecin] has a GI50 (MOLT-4) of 770 nM, a GI50 (SR) of 180 nM and a GI50 (CCRF-CEM) of 380 nM. It also gave a GI50 (MCF7/ADR) of 1860 nM, a GI50 (T 47D) of 2630 nM and a GI50 (MCF-7) of 3630 nM. For the same compound, the GI50 (SW 620) was 6020 nM, the GI50 (HCT 116) was 5620 nM and the GI50 (ACHN) was 2880 nM. The GI50 (786-O) was 2950 nM, the GI50 (CAKI-1) was 2630 nM and the GI50 (SF-268) was 4260 nM. For the same compound, the GI50 (SNB-19) was 6450 nM, the GI50 (SF-539) was 3890 nM and the IC50 ([2]; Homo sapiens, 48 h) was 8310 nM. The GI50 (H 460) was 1120 nM, the GI50 (HOP 62) was 4460 nM and the GI50 (H 522) was 3980 nM.

`CC[C@@]1(O)C(=O)OCc2c1cc1n(c2=O)C(CC(=O)OC)c2cc3cc(O)ccc3nc2-1` (stereo partly drawn) [Example 3, 10-hydroxy-5-carbomethoxymethylcamptothecin] gave an IC50 ([2]; Homo sapiens, 48 h) of 4890 nM.

`CC[C@@]1(O)C(=O)OCc2c1cc1n(c2=O)C(CC(C)=O)c2cc3c([N+](=O)[O-])cccc3nc2-1` (stereo partly drawn) [Example 4, 9-nitro-5-(2'-oxopropyl)camptothecin] gave a GI50 (HL 60) of 230 nM, a GI50 (SR) of 20 nM and a GI50 (CCRF-CEM) of 90 nM. The GI50 (LOX IMVI) was 380 nM, the GI50 (M 14) was 300 nM and the GI50 (UACC 62) was 330 nM. The GI50 (SW 620) was 70 nM, the GI50 (HT 29) was 1170 nM and the GI50 (HCT 116) was 570 nM. For the same compound, the GI50 (ACHN) was 210 nM, the GI50 (786-O) was 300 nM and the GI50 (CAKI-1) was 210 nM. It also gave a GI50 (SF-539) of 260 nM, a GI50 (SF 295) of 190 nM and an IC50 ([2]; Homo sapiens, 48 h) of 1000 nM. The GI50 (H 460) was 100 nM, the GI50 (HOP 62) was 260 nM and the GI50 (H 23) was 240 nM.

Work on `CC[C@@]1(O)C(=O)OCc2c1cc1n(c2=O)C(CC(=O)OC)c2cc3c([N+](=O)[O-])cccc3nc2-1` (stereo partly drawn) [Example 5, 9-Nitro-5-carbomethoxymethylcamptothecin] yielded an IC50 ([2]; Homo sapiens, 48 h) of 15800 nM.

For `CC[C@@]1(O)C(=O)OCc2c1cc1n(c2=O)C(CC(=O)OC)c2cc3c(OC)cccc3nc2-1` (stereo partly drawn) [Example 10, 9-methoxy-5-carbomethoxymethylcamptothecin], the IC50 ([2]; mean over NCI's 60 human tumor cell lines, 48 h incubation) was 16200 nM.

For `CCc1c2c(nc3ccc(O)cc13)-c1cc3c(c(=O)n1C2)COC(=O)[C@]3(O)CC` [SN-38, 7-ethyl-10-hydroxycamptothecin], the “percentage (%) of lactone form” value [1] is listed as “higher percentage (%) of lactone form at equilibrium”.

For `CC[C@@]1(O)C(=O)OCc2c1cc1n(c2=O)Cc2cc3c(CN(C)C)c(O)ccc3nc2-1` [Topotecan, topotecan], the “percentage (%) of lactone form” value [1] is listed as “higher percentage (%) of lactone form at equilibrium”.

In the case of `CCc1c2c(nc3ccc(OC)cc13)-c1cc3c(c(=O)n1C2)COC(=O)[C@]3(N)CC` [formula 6], the “in vivo antitumor activity (in words)” value [3] is given as “increased in vivo antitumor activity than 20(RS)-camptothecin”.

In the case of `C=C1C(=O)OCc2c1cc1n(c2=O)Cc2c-1nc1ccc(O)cc1c2CC` [formula 8], the “topoisomerase I inhibition (in words)” value (topoisomerase I) is listed as “potent camptothecin like inhibition of topoisomerase I activity”.

Source: patent US6214836A, “Water soluble analogues of 20(S)-camptothecin” (Dr. Reddy's Research Foundation, priority 1996, dated 2001)
